Assays:
[1] = system: recurrent laryngeal papillomatosis and cervical dysplasia; conditions: dietary supplementation; cited from earlier work
[2] = system: 2-hydroxy estrogen metabolism; conditions: women; cited from earlier work
women with mastalgia = conditions: cited from earlier work
women with endometriosis = conditions: endometriosis therapy; cited from earlier work
[3] = system: 2-hydroxy and 16-hydroxy estrogen metabolites; experiment: Urinary estrogen metabolites, Elisa based assay (Estratest); type: in vivo, human; conditions: After DIM, 225 mg per day
Procedure: Evaluation included a baseline morning urine sample and close assessment of their symptoms of breast pain during the ensuing month. Following this, bioavailable DIM was begun as a supplement at 225 mg per day together with increased dietary fiber. […] A second urine sample was obtained after one month on the DIM supplement.
The urine samples were subsequently analyzed for their levels of 2-hydroxy and 16-hydroxy estrogen metabolites, using an Elisa based assay (Estratest, Immunacare, Inc., Bethlehem, Pa.).

[4] = system: person with chronic recurring breast pain (mastalgia); experiment: Case study: processed DIM for chronic recurring breast pain (Example 5); type: in vivo, human; set-up: key to Typical Breast Pain Score / Typical Breast Soreness Score: 0 = none; 1 = mild; 2 = moderate; 3 = significant; 4 = severe; conditions: After DIM, 225 mg per day, one month
Description: The purpose of this study was to determine whether dietary supplementation with the cruicferous phytochemical, Diindolylmethane (DIM) is effective in relieving the pain of this chronic condition. patient one is a person referred for evaluation of perimenopausal symptoms of chronic recurring breast pain. They had been troubled by breast pain for many years with recent worsening in their symptoms. They had undergone a vaginal hysterectomy due to excessive and painful menstrual periods. Since their ovaries were left intact, they have received no Hormonal Replacement Therapy (HRT). During the last 4 years they experienced a monthly cycle of breast pain for about one week of each month. The breast pain was bilateral, associated with significant tenderness to touch, and a discomfort described as “heaviness or swelling.” A trial of a women's health supplement containing Don Quai provided no relief. Evaluation included a baseline morning urine sample and close assessment of their symptoms of breast pain during the ensuing month. Following this, bioavailable DIM was begun as a supplement at 225 mg per day together with increased dietary fiber. […] A second urine sample was obtained after one month on the DIM supplement.

[5] = system: non-cancerous colon cells; conditions: cited from earlier work
[6] = system: carcinogen-induced breast cancer; conditions: oral; cited from earlier work
serum Ca-125 antigen = experiment: Serial serum Ca-125 antigen levels in endometriosis patient; type: in vivo, human
Description: Diagnosis of the endometriosis and reduction in pain severity correlated with serial levels of serum Ca-125 antigen. Ca-125 is a serum marker with documented usefulness in monitoring the activity of endometriosis in a given patient (Pittaway D E and Fayez J A, 1986, “The use of CA-125 in the diagnosis and management of endometriosis”, Fertil Steril 46:790).

colon cancer cells = conditions: cited from earlier work
MCF7 breast cancer cells = conditions: tested in the absence of estrogen; cited from earlier work
[7] = system: person with severe endometriosis; experiment: Case study: processed DIM for endometriosis pain (Example 8); type: in vivo, human
Description: patient two is a slender and athletic person who sought alternatives in their management of severe endometriosis. Their symptoms of recurrent mid-cycle and menstrually associated pain have been diagnosed as due to endometriosis based on pelvic laparoscopy. This procedure confirmed aggressive endometriosis with ectopic endometrial implants removed from the pelvis and associated with intestinal serosal spread. A history of 2 years of intense pelvic pain at mid-cycle and during menstrual flow was reported prior to the laparoscopy. Their parent gives a history of painful menstrual periods […]. They went on to develop ovarian cancer requiring radical surgery […]. A maternal aunt developed cervical cancer requiring surgery. […] Like the patient, a younger sibling has been troubled with painful menstrual periods and pelvic pain leading to laparoscopy and the diagnosis of endometriosis.
Following the patient's laparoscopy, one menstrual period was still associated with significant pain. Supplementation with bioavailable processed DIM was begun approximately 6 weeks following the laparoscopy. Initial supplementation with bioavailable processed DIM provided 300 mg/day for one month which was reduced to 150 mg/day thereafter. […] The patient continued DIM supplementation for about one year.

[8] = Follow up Visit #3, Use of DIM YES
[9] = Follow-up Visit #1, Use of DIM YES
[10] = Follow-up Visit #2, Use of DIM YES

OCc1c[nH]c2ccccc12 [I3C, Indole-3-carbinol]
Clinical outcome [1]: some clinical improvement | Effect on 2-hydroxy estrogen metabolism [2]: increase 2-hydroxy estrogen metabolism

CC(=O)O[C@]1(C(C)=O)CC[C@H]2[C@@H]3C[C@H](C)C4=CC(=O)CC[C@]4(C)[C@H]3CC[C@@]21C [medroxyprogesterone acetate]
Relief of mastalgia versus placebo (women with mastalgia; controlled trial): no better than placebo

C#C[C@]1(O)CC[C@H]2[C@@H]3CCC4=Cc5oncc5C[C@]4(C)[C@H]3CC[C@@]21C [Danazol]
Response rate in mastalgia (women with mastalgia; severe breast pain): 70% | Women experiencing adverse side effects (women with endometriosis): up to 80%

c1ccc2c(Cc3c[nH]c4ccccc34)c[nH]c2c1 [DIM, 3,3′-Diindolylmethane]
2-Hydroxy estrone level, urinary ([3]; morning urine after one month): 26.4 ng/ml/mg Creatinine | 2-Hydroxy to 16-Hyroxy estrone ratio ([3]; urine after one month): 5.08 | 16-Hydroxy estrone level, urinary ([3]; urine after one month): 5.1 ng/ml/mg Creatinine | Total urinary estrone metabolites ([3]; urine after one month): 31.3 ng/ml/mg Creatinine | Typical Breast Soreness Score (in words) [4]: Absent | Typical Breast Pain Score (in words) ([4]; one patient): Absent | Typical Breast Pain Score ([4]; score out of 4): 0/4 | Typical Breast Soreness Score ([4]; score out of 4): 0/4 | Growth inhibitory activity [5]: not observed | Effect on tumor growth [6]: impede the growth | Ca-125 Antigen (serum Ca-125 antigen; [8]): 34.0 | Ca-125 Antigen (serum Ca-125 antigen; [9]): 26.4 | Ca-125 Antigen (serum Ca-125 antigen; [10]): 23.2 | Effect on cell growth (colon cancer cells): selective growth inhibitory activity | Effect on cell growth (MCF7 breast cancer cells): promoted growth | Pain Level [7, 8]: Improved | Pain Level [7, 9]: Improved | Pain Level [7, 10]: Improved | Comfort of menstrual periods / need for analgesics ([7]; supplementation for about one year): more comfortable, no longer requiring analgesics
